pKi: −log10 of the molar value.
Tests used:
[1] = design: method as in PMID 31647973; conditions: systemic pretreatment; cited from earlier work
VPA mouse model of ASD = tested on: VPA mouse model of ASD; design: method as in PMID 26074764; conditions: cited from earlier work
EqBuChE = EqBuChE (Equus caballus, UniProt P81908); test: Butyrylcholinesterase inhibition, modified Ellman's method; format: biochemical, equine; conditions: 1 μM (1000 nM) of compound; preliminary data, n = 2
hD5Rs = target: T1, hD5Rs (Homo sapiens, UniProt P21918); test: [3H]SCH23390 displacement assay, HEK cell membranes; format: binding
T1 construct: expressed in transfected cells
T1 sequence (P21918 whole entry): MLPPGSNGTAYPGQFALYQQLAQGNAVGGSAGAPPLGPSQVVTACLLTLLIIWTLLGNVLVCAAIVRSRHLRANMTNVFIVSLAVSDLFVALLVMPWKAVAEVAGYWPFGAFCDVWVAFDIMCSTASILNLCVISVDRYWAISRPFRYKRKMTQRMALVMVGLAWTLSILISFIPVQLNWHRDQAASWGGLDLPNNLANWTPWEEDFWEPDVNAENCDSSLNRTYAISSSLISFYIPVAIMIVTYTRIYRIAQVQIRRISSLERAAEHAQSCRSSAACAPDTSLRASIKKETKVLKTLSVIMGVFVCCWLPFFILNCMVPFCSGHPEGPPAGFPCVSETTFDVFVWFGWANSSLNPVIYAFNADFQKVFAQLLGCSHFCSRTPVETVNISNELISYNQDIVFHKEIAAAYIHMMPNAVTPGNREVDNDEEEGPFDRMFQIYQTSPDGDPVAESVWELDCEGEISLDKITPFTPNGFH
Procedure: (§1) In accordance with previous experimental protocols, the binding affinity of ST-2223 for H3Rs was assessed by applying the [^3H]N^α-methylhistamine binding assay, performed with cell membrane preparation of HEK cells stably expressing the human H3R (n = 4). In addition, and as previously described, the binding affinity of ST-2223 for human dopamine hD1Rs and hD5Rs (HEK) against [^3H]SCH23390 and hD2SRs, hD3Rs (CHO) using [^3H]spiperone (n = 3) was assessed (n = 3).

hD1Rs = target: T2, hD1Rs (Homo sapiens, UniProt P21728); test: as above; format: binding
T2 construct: expressed in transfected cells
T2 sequence (P21728 whole entry): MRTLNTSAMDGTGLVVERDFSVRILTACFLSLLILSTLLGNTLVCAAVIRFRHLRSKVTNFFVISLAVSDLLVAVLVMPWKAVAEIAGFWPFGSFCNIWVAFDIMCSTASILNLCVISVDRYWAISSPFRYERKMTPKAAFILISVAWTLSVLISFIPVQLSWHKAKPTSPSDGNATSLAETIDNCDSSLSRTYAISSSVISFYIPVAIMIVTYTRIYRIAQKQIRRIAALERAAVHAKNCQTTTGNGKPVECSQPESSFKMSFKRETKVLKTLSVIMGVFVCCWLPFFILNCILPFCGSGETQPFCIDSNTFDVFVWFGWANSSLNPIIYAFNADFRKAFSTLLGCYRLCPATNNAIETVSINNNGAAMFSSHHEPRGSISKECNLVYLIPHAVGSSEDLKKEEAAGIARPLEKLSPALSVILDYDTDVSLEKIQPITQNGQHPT
Procedure: as §1

hH1R = target: T3, hH1R (Homo sapiens, UniProt P35367); test: [3H]pyrilamine binding assay, membranes of CHO cells
T3 construct: expressed in transfected cells
T3 sequence (P35367 whole entry): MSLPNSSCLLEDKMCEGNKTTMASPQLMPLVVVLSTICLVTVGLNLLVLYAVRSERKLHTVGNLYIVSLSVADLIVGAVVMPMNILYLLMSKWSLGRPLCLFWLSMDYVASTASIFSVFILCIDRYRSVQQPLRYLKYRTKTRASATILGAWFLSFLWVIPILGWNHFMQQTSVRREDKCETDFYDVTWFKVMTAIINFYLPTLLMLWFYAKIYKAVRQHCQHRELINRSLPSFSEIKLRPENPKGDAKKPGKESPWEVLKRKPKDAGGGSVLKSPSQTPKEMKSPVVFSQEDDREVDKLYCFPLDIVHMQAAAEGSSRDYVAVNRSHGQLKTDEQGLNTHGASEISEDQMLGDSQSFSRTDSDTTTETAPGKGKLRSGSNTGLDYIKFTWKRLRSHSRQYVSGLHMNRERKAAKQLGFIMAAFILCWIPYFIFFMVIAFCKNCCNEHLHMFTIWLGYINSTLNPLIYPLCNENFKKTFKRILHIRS

human H3R = target: T4, human H3R (Homo sapiens, UniProt Q9Y5N1); test: [3H]Nα-methylhistamine binding assay, membranes of HEK cells; conditions: HEK cells stably expressing human H3R, n = 4; read-out: Ki (hH3R)
T4 construct: expressed in transfected cells
T4 sequence (Q9Y5N1 whole entry): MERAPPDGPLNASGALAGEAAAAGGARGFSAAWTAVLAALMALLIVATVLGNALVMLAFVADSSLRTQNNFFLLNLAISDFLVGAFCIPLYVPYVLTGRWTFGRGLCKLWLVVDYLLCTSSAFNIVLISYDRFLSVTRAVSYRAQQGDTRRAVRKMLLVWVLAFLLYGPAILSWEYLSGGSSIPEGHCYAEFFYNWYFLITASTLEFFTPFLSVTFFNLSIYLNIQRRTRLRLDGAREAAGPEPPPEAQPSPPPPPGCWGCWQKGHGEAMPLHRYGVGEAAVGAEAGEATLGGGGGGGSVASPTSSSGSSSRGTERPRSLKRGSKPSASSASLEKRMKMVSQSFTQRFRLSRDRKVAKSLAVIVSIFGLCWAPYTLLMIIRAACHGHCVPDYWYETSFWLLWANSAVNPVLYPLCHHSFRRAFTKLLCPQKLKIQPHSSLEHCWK
Procedure: as §1

hD3Rs = target: T5, hD3Rs (Homo sapiens, UniProt P35462); test: [3H]spiperone displacement assay, CHO cell membranes; format: binding
T5 construct: expressed in transfected cells
T5 sequence (P35462 whole entry): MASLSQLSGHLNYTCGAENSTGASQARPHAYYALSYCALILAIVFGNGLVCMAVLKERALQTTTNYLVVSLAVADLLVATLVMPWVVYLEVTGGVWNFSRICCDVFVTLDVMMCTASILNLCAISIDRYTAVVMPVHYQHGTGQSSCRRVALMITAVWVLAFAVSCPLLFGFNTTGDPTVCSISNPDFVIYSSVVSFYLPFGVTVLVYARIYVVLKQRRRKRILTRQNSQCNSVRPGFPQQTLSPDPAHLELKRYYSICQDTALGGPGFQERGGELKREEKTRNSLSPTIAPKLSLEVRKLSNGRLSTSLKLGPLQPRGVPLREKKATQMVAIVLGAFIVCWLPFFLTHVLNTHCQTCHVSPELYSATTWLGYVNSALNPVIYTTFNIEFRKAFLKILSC
Procedure: as §1

hD2SRs = target: T6, hD2SRs (Homo sapiens, UniProt P14416); test: as above; format: binding
T6 construct: expressed in transfected cells
T6 sequence (P14416 1-414 isoform P14416-2): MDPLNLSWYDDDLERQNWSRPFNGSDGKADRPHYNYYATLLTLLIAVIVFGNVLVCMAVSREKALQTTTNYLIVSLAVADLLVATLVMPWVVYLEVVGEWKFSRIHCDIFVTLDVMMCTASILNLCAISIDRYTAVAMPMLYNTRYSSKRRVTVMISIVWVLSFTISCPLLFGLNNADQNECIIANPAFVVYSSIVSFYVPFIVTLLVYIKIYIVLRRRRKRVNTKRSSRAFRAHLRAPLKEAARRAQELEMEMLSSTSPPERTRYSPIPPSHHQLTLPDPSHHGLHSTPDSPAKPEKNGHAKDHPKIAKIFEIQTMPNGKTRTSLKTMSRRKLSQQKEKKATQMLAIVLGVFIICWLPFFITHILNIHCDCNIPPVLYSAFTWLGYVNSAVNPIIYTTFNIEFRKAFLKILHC
Procedure: as §1

EeAChE = EeAChE (Electrophorus electricus, UniProt O42275); test: Acetylcholinesterase inhibition, modified Ellman's method; format: biochemical, electric eel; conditions: 1 μM (1000 nM) of compound; preliminary data
Chain of EeAChE (O42275 24-633): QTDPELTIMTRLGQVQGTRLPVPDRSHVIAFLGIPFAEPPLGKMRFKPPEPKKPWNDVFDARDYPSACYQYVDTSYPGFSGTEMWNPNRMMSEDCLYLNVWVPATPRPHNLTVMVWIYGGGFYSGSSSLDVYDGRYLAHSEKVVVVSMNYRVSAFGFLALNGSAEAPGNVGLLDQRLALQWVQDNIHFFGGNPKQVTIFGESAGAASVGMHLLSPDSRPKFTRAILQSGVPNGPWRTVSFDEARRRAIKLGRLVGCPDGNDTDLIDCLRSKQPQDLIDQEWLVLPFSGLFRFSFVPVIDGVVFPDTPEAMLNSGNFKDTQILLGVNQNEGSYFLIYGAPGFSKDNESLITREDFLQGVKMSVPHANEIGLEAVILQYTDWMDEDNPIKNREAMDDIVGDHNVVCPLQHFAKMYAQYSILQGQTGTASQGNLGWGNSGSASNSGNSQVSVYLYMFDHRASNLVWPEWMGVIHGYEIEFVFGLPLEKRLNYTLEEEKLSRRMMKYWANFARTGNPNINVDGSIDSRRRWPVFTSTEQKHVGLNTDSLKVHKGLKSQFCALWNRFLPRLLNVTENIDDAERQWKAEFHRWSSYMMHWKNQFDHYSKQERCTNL

Chain of EqBuChE (P81908 whole entry): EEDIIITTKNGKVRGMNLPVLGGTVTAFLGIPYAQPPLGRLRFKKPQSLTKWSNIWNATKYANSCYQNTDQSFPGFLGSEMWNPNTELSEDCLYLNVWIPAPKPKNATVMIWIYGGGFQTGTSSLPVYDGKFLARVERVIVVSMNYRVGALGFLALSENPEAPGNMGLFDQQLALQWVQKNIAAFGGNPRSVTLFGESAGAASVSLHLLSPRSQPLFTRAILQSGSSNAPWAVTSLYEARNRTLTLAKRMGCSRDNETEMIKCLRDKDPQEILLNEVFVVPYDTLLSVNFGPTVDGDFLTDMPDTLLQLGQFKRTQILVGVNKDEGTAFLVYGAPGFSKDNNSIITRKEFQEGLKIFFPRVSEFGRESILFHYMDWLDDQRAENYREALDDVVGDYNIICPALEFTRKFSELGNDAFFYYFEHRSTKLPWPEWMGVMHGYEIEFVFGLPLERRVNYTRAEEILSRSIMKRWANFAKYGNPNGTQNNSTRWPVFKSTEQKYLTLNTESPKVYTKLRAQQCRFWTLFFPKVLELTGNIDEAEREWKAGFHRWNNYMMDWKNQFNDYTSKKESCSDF

For `O=C1CCc2ccc(OCCCCN3CCN(c4cccc(Cl)c4Cl)CC3)cc2N1` [ARP, aripiprazole], the “enhanced frequency of self-grooming induced by neuromedin U” value [1] is given as “attenuation”.

In the case of `CC12CC3CC(C)(C1)CC(N)(C3)C2` [MEM, memantine], the “social deficits and repetitive behaviors (self-grooming, jumping)” value (VPA mouse model of ASD) is given as “rescued”.

In the case of `COc1ccccc1N1CCN(CCCCNC(=O)c2ccc3cc(OCCCN4CCCCC4)ccc3c2)CC1` [ST-2223, N-(4-(4-(2-methoxyphenyl)piperazin-1-yl)butyl)-6-(3-(piperidin-1-yl)propoxy)-2-naphthamide], the inhibition at 1 µM (EqBuChE) was < 30%, the pKi (hD5Rs) was 5.30 and the pKi (hD1Rs) was 6.25. For the same compound, the pKi (hH1R) was 7.07, the pKi (human H3R) was 8.32 and the pKi (hD3Rs) was 8.70. For the same compound, the “hD2R/hD3R ratio of Ki values” (hD3Rs; preference for hD3R) was 10, the pKi (hD2SRs) was 7.70 and the inhibition at 1 µM (EeAChE) was < 60%.

— publication PMC7920280, “The Multi-Targeting Ligand ST-2223 with Histamine H3 Receptor and Dopamine D2/D3 Receptor Antagonist Properties Mitigates Autism-Like Repetitive Behaviors and Brain Oxidative Stress in Mice” (International Journal of Molecular Sciences, 2021)
